In patent publication US4314999A, “N-Acyl derivatives of glucosamine having antitumor chemotherapeutic acitivity” (Proter S.p.A., priority 1980, dated 1982):

System: Leukemia L 1210
Assay: Survival (MST, ILS, T/C%) of mice inoculated i.p. with Leukemia L 1210, compound given orally
Format: in vivo
Design: Increase in Life Span (ILS): unit not given here
Conditions: for Survivors: of 10 mice
Method: The chemotherapeutic activity of the compound ethyl-D-glucosamyl-L-aspartoyl(β-ethoxy)-D-glucosamyl)m-di(2-chloroethylamino)-L-phenylalanyl-p-fluoro-L-phenylalanine was evaluated by conducting trials on mice injected with cells of Leukemia 1210 according to the procedure established in Cancer Chemotherapy Reports 1972, Vol. 3, No. 2: Protocols for Screening Chemical Agents and Natural Products Against Animal Tumors and other Biological Systems (Third Edition, National Cancer Institute, Bethesda, Maryland. The experimental model employed for the evaluation is:
Determination of the MST (Mean Survival Time) of BDGI mice inoculated intraperitoneally with 10^5 cells of lymphoid Leukenia L 1210 deriving from regular implants in DBA2 mice. The MST was determined both on the controls and on the animals treated, and thereafter an evaluation was made of the ILS (Increased Life Span) according to Cancer Chemotherapy Reports 1972, Vol. 3, No. 2 (Protocols for Screening Chemical Agents and Natural Products Against Animal Tumors and other Biological Systems--Third Edition, National Cancer Institute, Bethesda, Maryland). In this case, the compounds were tested only after oral administration starting from the 3rd day after implant of the tumor and continuing on the 17th, 25th and 35th day. On the 52nd day, any surviving animals were sacrificed and the experiment discontinued and evaluated.
The formula for the calculation of mean survival time is: [formula] wherein Day A=Day on which deaths are no longer considered due to drug toxicity - For Leukemia L 1210 day A=day 6
Day B=This day cannot be considered here because all control animals died within the 11th day and survivors were not observed.
S=The total of survivors from 6th day onwards
S(A-1)=Number of survivors at the end of day 5 (A-1)=S5
The ILS and the ratio T/C% are calcuated as follows: […]

[1] = Table, oral 25, 15, 10, 5 mg/Kg on days 3, 17, 25, 35, L 1210 mice

Ethyl-D-glucosamyl-L-aspartoyl(β-ethoxy)-D-glucosamyl-m-di-(2-chloroethyl)amino-L-phenylalanyl-p-fluoro-phenylalanine
5: Survivors (day 30 from inoculum) | Survivors (day 31 from inoculum) | Survivors (day 32 from inoculum) | Survivors (day 33 from inoculum)
3: Survivors (day 40 from inoculum) | Survivors (day 41 from inoculum)
6: Survivors (day 21 from inoculum) | Survivors (day 22 from inoculum) | Survivors (day 23 from inoculum) | Survivors (day 24 from inoculum) | Survivors (day 25 from inoculum, oral 10 mg/Kg given this day) | Survivors (day 26 from inoculum) | Survivors (day 27 from inoculum) | Survivors (day 28 from inoculum) | Survivors (day 29 from inoculum)
186.4: I.L.S. [1] | Increase in Life Span (ILS) (ten mice, 10^5 L 1210 cells i.p., oral 25, 15, 10, 5 mg/kg on days 3, 17, 25, 35, calculated as 311.4-125)
4: Survivors (day 34 from inoculum) | Survivors (day 35 from inoculum, oral 5 mg/Kg given this day) | Survivors (day 36 from inoculum) | Survivors (day 37 from inoculum) | Survivors (day 38 from inoculum) | Survivors (day 39 from inoculum)
10: Survivors (day 3 from inoculum, oral 25 mg/Kg given this day) | Survivors (day 4 from inoculum) | Survivors (day 5 from inoculum) | Survivors (day 6 from inoculum) | Survivors (day 7 from inoculum) | Survivors (day 8 from inoculum) | Survivors (day 9 from inoculum) | Survivors (day 10 from inoculum) | Survivors (day 11 from inoculum) | Survivors (day 12 from inoculum) | Survivors (day 13 from inoculum) | Survivors (day 14 from inoculum) | Survivors (day 15 from inoculum) | Survivors (day 16 from inoculum) | Survivors (day 17 from inoculum, oral 15 mg/Kg given this day) | Survivors (day 18 from inoculum)
2: Survivors (day 42 from inoculum) | Survivors (day 43 from inoculum) | Survivors (day 44 from inoculum) | Survivors (day 45 from inoculum) | Survivors (day 46 from inoculum) | Survivors (day 47 from inoculum) | Survivors (day 48 from inoculum)
0: Survivors (day 52 from inoculum)
8: Survivors (day 19 from inoculum) | Survivors (day 20 from inoculum)
32.7 days: Mean Survival Time (MST) (ten mice, 10^5 L 1210 cells i.p., oral 25, 15, 10, 5 mg/kg on days 3, 17, 25, 35)
32.7: M.S.T. [1]
1: Survivors (day 49 from inoculum) | Survivors (day 50 from inoculum) | Survivors (day 51 from inoculum)
311.4%: T/C % [1] | T/C% (MST of the treated group divided by the MST of the control group) (ten mice, 10^5 L 1210 cells i.p., oral 25, 15, 10, 5 mg/kg on days 3, 17, 25, 35, control MST 10.5)
